Test [1] relates to Eighteen tested microorganisms (Gram-positive bacteria, Gram-negative bacteria, yeasts, fungi). Nature of the test: Antimicrobial activity, agar well diffusion method, whole panel. Format: cell-based. The settings on record: whole panel of tested microorganisms, in words. From the text: Eighteen tested microorganisms including five Gram-positive bacteria (Bacillus subtilis ATCC 6633, Bacillus amyloliquefaciens 4BCL-YT, Staphylococcus aureus ATCC 25923, Listeria monocytogenes NBIMCC 8632, Enterococcus faecalis ATCC 19433), five Gram-negative bacteria (Salmonella enteritidis ATCC 13076, Klebsiella sp.—clinical isolate, Escherichia coli ATCC 25922, Proteus vulgaris ATCC 6380, Pseudomonas aeruginosa ATCC 9027), two yeasts (Candida albicans NBIMCC 74, Saccharomyces cerevisiae ATCC 9763) and six fungi (Aspergillus niger ATCC 1015, Aspergillus flavus, Penicillium sp., Rhizopus sp., Mucor sp.—plant isolates, Fusarium moniliforme ATCC 38932) from the collection of the Department of Microbiology at the University of Food Technologies—Plovdiv, Bulgaria, were selected for the antimicrobial activity test.
The antimicrobial activity of the samples was determined by the agar well diffusion method. The tested bacteria B. subtilis and B. amyloliquefaciens were cultured on LBG agar at 30 °C. The test bacteria S. aureus, L. monocytogenes, E. faecalis, S. enteritidis, Klebsiella sp., E. coli, P. vulgaris and P. aeruginosa were cultured on LBG agar at 37 °C for 24 h. The yeast C. albicans was cultured on MEA at 37 °C, while S. cerevisiae was cultured on MEA at 30 °C for 24 h. The fungi A. niger, A. flavus, Penicillium sp., Rhizopus sp., Mucor sp., and F. moniliforme were grown on MEA at 30 °C for 7 days or until sporulation.
The inocula of the tested bacteria/yeasts were prepared by homogenization of a small amount of biomass in 5 mL of sterile 0.5% NaCl. […] The number of viable cells and fungal spores was determined using a bacterial counting chamber Thoma (Poly-Optik, GmbH, Bad Blankenburg, Germany). […] Next, the inoculated media were transferred in a quantity of 18 mL in sterile Petri plates (d = 90 mm) (Gosselin™, Hazebrouck, France) and allowed to harden. […]
The antimicrobial activity was determined by measuring the diameter of the inhibition zones around the wells on the 24th and 48th h of incubation. […]

Test [2] has as its system SM preparations from the corpus gastric muscle. Nature of the test: Ex vivo bioelectrical activity of smooth muscle preparations, single sucrose gap method. The settings on record: 5 × 10^−5 M; for Amplitude of slow waves, Measured value / Amplitude of spike potentials, Measured value / Number of slow waves, Measured value / Number of spike potentials, Measured value: 10 min, n = 7, mean ± SEM. Set-up: species or system Wistar rats. Here is the method:
Adult male Wistar rats weighing 280–300 g were used. Animals were housed in standard laboratory conditions (23 to 25 °C, 50–55% humidity, 12/12 h light/dark cycle), while food and water were provided ad libitum.
Circular SM preparations were dissected from the corpus gastric muscle (26–28 mm long and 0.8–0.9 mm wide; without mucosa). Two or three muscle strips were taken from the rat stomach. The number of SM preparations used for each data point is indicated by n. After dissection, the tissues must prevent loss of viability, so during the dissection, the tissues were systematically moistened with a solution (NaCl:KCl:CaCl2 in ratio 27.2:1.1:1) prepared at 4 °C.
The BEA of SM preparations was investigated by means of the single sucrose gap method with silver non-polarizable freshly chlorinated electrodes. The muscle strips were divided into 3 zones: two electrode sections were flushed with isotonic KCl solution and Krebs solution (pH 7.3), respectively, and separated by a sucrose layer of high electric resistance. Krebs contained the following (in mM): NaCl 120; KCl 5.9; CaCl2 2.5; MgCl2 1.2; NaH2PO4 1.2; NaHCO3 15.4; glucose 11.5. All the ingredients for this solution were of analytical grade and obtained from Merck (Darmstadt, Germany). Deionized water (18.2 mX/cm^2) was used thoroughly. The KCl solution is similar to the Krebs solution but with an equimolar substitution of NaCl with KCl. An isotonic sucrose solution, due to its very high specific resistance (about 10^6 Ω·cm), provides the best possible separation of the sucrose solution from the physiological solution in the “normal” pool, on the one hand, and the solution providing a zero value of the membrane potential in the pool with another recording electrode.
The inflow rate of each solution (Krebs, KCl, and isotonic sucrose solution) was controlled by a needle valve and continuously aerated with a mixture of 95% O2 and 5% CO2, and the temperature was maintained at 37 °C. A potential difference between the two end sections of the gap (control conditions) was achieved by means of silver non-polarizable, freshly chlorinated electrodes and after a 40-min period of adaptation and stabilization was accepted as the initial (control). The Krebs solution was changed several times during the adaptation period. The viability of the SM preparations was periodically tested by treatment with 1 × 10^−6 M ACh.
The membrane potential value was visualized by means of a Linseis recorder (Selb, Germany). A pair of measuring electrodes is located on both sides of the sucrose sections. The pH (pH 7.3; 37 °C) of the Krebs bathing solution was measured before each experiment by pH-meter HI5521 (Hanna Instruments Inc., Woonsocket, RI, USA). […]
The new substances were dissolved initially in dimethyl sulphoxide (DMSO) to prepare a 5 × 10^−2 M stock solution. Further dilutions were made in distilled deionized water and were applied by adding aliquots of their concentrated solutions to the tissue bath.

Each structure is given as a SMILES string. Marks after values point to notes of the source that are not given here.

Take `CC(C)C(N)Cc1ccccc1` (stereo not drawn) [Compound 3, 3-Methyl-1-phenylbutan-2-amine]: the antimicrobial activity result in test [1] is recorded as “only modest activity against Gram-negative bacteria”. Also, in test [2], the “Amplitude of slow waves, Measured value” amounted to 5.28 ± 0.33 mV; the “Amplitude of spike potentials, Measured value” worked out at 2.61 ± 0.16 mV; the “Number of slow waves, Measured value” is 4.90 ± 0.09 min⁻¹; the “Number of spike potentials, Measured value” is given as 48.22 ± 0.39 * min^−1. Besides, the “Changes in the membrane potential” value in test [2] (base activity taken as 100%, ↑ depolarization, ↓ hyperpolarization) stood at 55%.

For the molecule `CC(=O)NC(Cc1ccccc1)C(C)C` (stereo not drawn) [Compound 4a, N-(3-methyl-1-phenylbutan-2-yl)acetamide], the antimicrobial activity entry in test [1] was “inhibited only the growth of Escherichia coli”. Also, in test [2], the “Amplitude of slow waves, Measured value” turned out to be 4.32 ± 0.38 mV; the “Amplitude of spike potentials, Measured value” is given as 0 * mV; the “Number of slow waves, Measured value” worked out at 4.72 ± 0.55 min⁻¹; the “Number of spike potentials, Measured value” was 0 * min^−1. Further, in test [2] (in words), the “effect on bioelectrical activity (slow waves, spike potentials)” value was “complete disappearance of the spike potentials”.

The record behind these values is paper PMC9953468, “In Silico, In Vitro, and Ex Vivo Biological Activity of Some Novel Mebeverine Precursors” (Biomedicines, 2023).
